Laboratory results taken from article PMC4155686, “Oleoyl Coenzyme A Regulates Interaction of Transcriptional Regulator RaaS (Rv1219c) with DNA in Mycobacteria*” (The Journal of Biological Chemistry, 2014).

Target: RaaS (Rv1219c) (Mycobacterium tuberculosis, UniProt O86312)
Test: biochemical

Sequence of RaaS (Rv1219c) (O86312 whole entry): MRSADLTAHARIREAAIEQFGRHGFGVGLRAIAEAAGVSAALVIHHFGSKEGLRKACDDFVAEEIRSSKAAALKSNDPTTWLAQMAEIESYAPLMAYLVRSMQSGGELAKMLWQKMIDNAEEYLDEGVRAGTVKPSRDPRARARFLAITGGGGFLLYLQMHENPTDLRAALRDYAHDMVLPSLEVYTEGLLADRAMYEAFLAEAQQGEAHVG

## CCCCCCCC/C=C\CCCCCCCC(=O)SCCNC(=O)CCNC(=O)[C@H](O)C(C)(C)COP(=O)(O)OP(=O)(O)OC[C@H]1O[C@@H](n2cnc3c(N)ncnc32)[C@H](O)[C@@H]1OP(=O)(O)O [oleoyl-CoA]
  Kd: 3.65 ± 0.28 µM
